Several values for one entry are separate records, joined by “and”; a condition that tells them apart may be missing. Identical values can stand only once.
Tests used:
[1] = target: Glycogen synthase kinase-3 beta (Homo sapiens, UniProt P49841); assay: TR-FRET Assay
Summary of the method: (§1)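 Enzyme and test compound were first incubated together for 30 minutes in assay buffer. The kinase reaction followed and was stopped with EDTA. The pSer641 signal was read by time-resolved FRET.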

[2] = target: Glycogen synthase kinase-3 alpha (Homo sapiens, UniProt P49840); assay: TR-FRET Assay
Summary of the method: as §1

Chain of Glycogen synthase kinase-3 beta (P49841 whole entry): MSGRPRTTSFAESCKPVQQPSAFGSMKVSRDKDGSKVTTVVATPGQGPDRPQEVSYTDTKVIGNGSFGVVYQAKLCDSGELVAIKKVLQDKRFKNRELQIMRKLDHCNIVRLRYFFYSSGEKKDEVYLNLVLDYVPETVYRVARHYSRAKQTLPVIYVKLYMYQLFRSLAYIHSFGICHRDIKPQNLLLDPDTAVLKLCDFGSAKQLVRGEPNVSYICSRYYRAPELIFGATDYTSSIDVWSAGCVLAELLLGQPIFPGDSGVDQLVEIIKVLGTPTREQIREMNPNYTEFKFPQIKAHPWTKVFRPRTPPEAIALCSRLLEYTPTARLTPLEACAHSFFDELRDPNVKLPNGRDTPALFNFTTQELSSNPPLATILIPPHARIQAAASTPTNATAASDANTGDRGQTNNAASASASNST
Chain of Glycogen synthase kinase-3 alpha (P49840 whole entry): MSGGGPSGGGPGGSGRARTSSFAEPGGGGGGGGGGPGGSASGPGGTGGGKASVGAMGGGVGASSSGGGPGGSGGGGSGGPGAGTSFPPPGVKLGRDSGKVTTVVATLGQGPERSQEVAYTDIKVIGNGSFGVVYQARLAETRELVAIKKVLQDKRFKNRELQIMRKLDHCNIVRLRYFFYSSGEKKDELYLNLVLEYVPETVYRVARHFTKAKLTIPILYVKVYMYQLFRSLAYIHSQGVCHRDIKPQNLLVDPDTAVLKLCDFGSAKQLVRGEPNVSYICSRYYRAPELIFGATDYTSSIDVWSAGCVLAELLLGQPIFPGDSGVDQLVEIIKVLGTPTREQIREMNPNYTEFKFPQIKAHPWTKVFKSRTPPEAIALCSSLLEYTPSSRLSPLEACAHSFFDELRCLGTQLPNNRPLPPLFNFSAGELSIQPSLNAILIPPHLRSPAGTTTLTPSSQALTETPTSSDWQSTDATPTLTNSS

SMILES	IC50 [1]	IC50 [2]
CC[C@@]1(c2cccc(-c3cc(C)ncc3F)c2)C2=C(CC(C)(C)NC2=O)NC2N=NC(C)=C21 (some centres undefined) [US20250313563, Compound 949338]	< 100 nM	< 100 nM
CC[C@]1(c2cccc(C(F)(F)F)c2)C2=CN=NC2NC2=C1C(=O)N(c1cnc(OC)nc1)[C@@H](C)C2 (some centres undefined) [US20250313563, Compound 949352]	1000 to 5000 nM	100 to 1000 nM
CC[C@]1(c2cccc(C(F)(F)F)c2)C2=CN=NC2NC2=C1C(=O)N(c1cnc(OC)nc1)[C@@H](C)C2 (some centres undefined) [US20250313563, Compound 949354]	1000 to 5000 nM	100 to 1000 nM
CC[C@]1(c2cccc(-c3ccnc(C(F)F)c3)c2)C2=CN=NC2NC2=C1C(=O)NC(C)(C)C2 (some centres undefined) [US20250313563, Compound 949388]	> 5000 nM	1000 to 5000 nM
CC[C@]1(c2cccc(C3=CNN4CC=CN=C34)c2)C2=CN=NC2NC2=C1C(=O)NC(C)(C)C2 (some centres undefined) [US20250313563, Compound 949389]	> 5000 nM	1000 to 5000 nM
CC[C@]1(c2cccc(C3=CNN4CC(F)=CC(F)=C34)c2)C2=CN=NC2NC2=C1C(=O)NC(C)(C)C2 (some centres undefined) [US20250313563, Compound 949390]	> 5000 nM	1000 to 5000 nM
CC[C@@]1(c2cccc(-c3c(C)ccc4c(C)cccc34)c2)C2=C(CC(C)(C)NC2=O)NC2N=NC(F)=C21 (some centres undefined) [US20250313563, Compound 949392]	> 5000 nM	1000 to 5000 nM
CC[C@@]1(c2cccc(-c3ccnn3C)c2)C2=CN=NC2NC2=C1C(=O)NC1(CCS(=O)(=O)CC1)C2 (some centres undefined) [US20250313563, Compound 949394]	100 to 1000 nM	< 100 nM
CC[C@]1(c2cccc(-c3ccnn3-c3ccc(F)cc3)c2)C2=CN=NC2NC2=C1C(=O)NC(C)(C)C2 (some centres undefined) [US20250313563, Compound 949396]	> 5000 nM	> 5000 nM
CC[C@]1(c2cccc(C3CCCC3)c2)C2=CN=NC2NC2=C1C(=O)CC(C)(C)C2 (some centres undefined) [US20250313563, Compound 949397]	< 100 nM and 1000 to 5000 nM	< 100 nM and 100 to 1000 nM
CC[C@@]1(c2cccc(C3CCCC3)c2)C2=CN=NC2NC2=C1C(=O)CC(C)(C)C2 (some centres undefined) [US20250313563, Compound 949399]	> 5000 nM	1000 to 5000 nM
CC[C@]1(c2cccc(-c3ccnn3C)c2)C2=CN=NC2NC2=C1C(=O)NC1(CCS(=O)(=O)CC1)C2 (some centres undefined) [US20250313563, Compound 949400]	> 5000 nM	1000 to 5000 nM
CCc1cccc([C@@]2(CC)C3=CN=NC3NC3=C2C(=O)CC(C)(C)C3)c1 (some centres undefined) [US20250313563, Compound 949401]	< 100 nM and 1000 to 5000 nM	< 100 nM and 100 to 1000 nM
CCC1(c2cccc(N(C)c3ncccn3)c2)C2=C(CC(C)(C)NC2=O)NC2N=NC(Cl)=C21 (centres undefined) [US20250313563, Compound 949417]	< 100 nM	< 100 nM
CC[C@]1(c2cccc(-c3ccnc(C)c3)c2)C2=C(CC(C)(C)NC2=O)NC2N=NC(Cl)=C21 (some centres undefined) [US20250313563, Compound 949421]	> 5000 nM	100 to 1000 nM
CC[C@@]1(c2cccc(-c3ccnc(C)c3)c2)C2=C(CC(C)(C)NC2=O)NC2N=NC(Cl)=C21 (some centres undefined) [US20250313563, Compound 949422]	< 100 nM and 1000 to 5000 nM	< 100 nM and 100 to 1000 nM
CC[C@]1(c2cccc(-c3cc(C4CCCC4)nn3C)c2)C2=CN=NC2NC2=C1C(=O)NC(C)(C)C2 (some centres undefined) [US20250313563, Compound 949509]	> 5000 nM	> 5000 nM
CC[C@]1(c2cccc(-c3cnn(CCN4CCCC4)c3)c2)C2=CN=NC2NC2=C1C(=O)NC(C)(C)C2 (some centres undefined) [US20250313563, Compound 949510]	> 5000 nM	> 5000 nM
CC[C@]1(c2cccc(-c3cnn(Cc4ccc(C(F)(F)F)cc4)c3)c2)C2=CN=NC2NC2=C1C(=O)NC(C)(C)C2 (some centres undefined) [US20250313563, Compound 949511]	> 5000 nM	> 5000 nM
CC[C@@]1(c2cccc(-c3cc(C)ncc3OC)c2)C2=CN=NC2NC2=C1C(=O)NC(C)(C)C2 (some centres undefined) [US20250313563, Compound 949512]	> 5000 nM	1000 to 5000 nM
CC[C@]1(c2cccc(-c3cnn(Cc4cccc(C(F)(F)F)c4)c3)c2)C2=CN=NC2NC2=C1C(=O)NC(C)(C)C2 (some centres undefined) [US20250313563, Compound 949513]	> 5000 nM	> 5000 nM
CC[C@]1(c2cccc(-c3cnn(-c4cccnc4)c3)c2)C2=CN=NC2NC2=C1C(=O)NC(C)(C)C2 (some centres undefined) [US20250313563, Compound 949515]	> 5000 nM	> 5000 nM
CC[C@]1(c2cccc(-c3ccncc3C(F)(F)F)c2)C2=CN=NC2NC2=C1C(=O)NC(C)(C)C2 (some centres undefined) [US20250313563, Compound 949516]	> 5000 nM	1000 to 5000 nM
CC[C@]1(c2cccc(-c3ccnc(C)c3)c2)C2=CN=NC2NC2=C1C(=O)NC1(CCC1)C2 (some centres undefined) [US20250313563, Compound 949517]	> 5000 nM	1000 to 5000 nM
CC[C@]1(c2cccc(-c3ccnn3C3CC3(F)F)c2)C2=CN=NC2NC2=C1C(=O)NC(C)(C)C2 (some centres undefined) [US20250313563, Compound 949518]	> 5000 nM	100 to 1000 nM
CC[C@]1(c2cccc(-c3cnn(-c4ccccc4)c3F)c2)C2=CN=NC2NC2=C1C(=O)NC(C)(C)C2 (some centres undefined) [US20250313563, Compound 949519]	> 5000 nM	> 5000 nM

SMILES	IC50 [1]	IC50 [2]
CC[C@@]1(c2cccc(-c3ccnc(C)c3)c2)C2=CN=NC2NC2=C1C(=O)NC1(CCC1)C2 (some centres undefined) [US20250313563, Compound 949520]	100 to 1000 nM	< 100 nM
CC[C@]1(c2cccc(C3CCC3)c2)C2=CN=NC2NC2=C1C(=O)CC(C)(C)C2 (some centres undefined) [US20250313563, Compound 949521]	< 100 nM and 1000 to 5000 nM	< 100 nM and 100 to 1000 nM
CC[C@]1(c2cccc(-c3cc(C)ncc3OC)c2)C2=CN=NC2NC2=C1C(=O)NC(C)(C)C2 (some centres undefined) [US20250313563, Compound 949522]	100 to 1000 nM	< 100 nM
CC[C@]1(c2cccc(C(F)(F)F)c2)C2=CN=NC2NC2=C1C(=O)N(CCOC)CC2 (some centres undefined) [US20250313563, Compound 949599]	100 to 1000 nM	100 to 1000 nM
CC[C@@]1(c2cccc(C(F)(F)F)c2)C2=CN=NC2NC2=C1C(=O)N(CCOC)CC2 (some centres undefined) [US20250313563, Compound 949600]	> 5000 nM	> 5000 nM
CCC1(c2cccc(C(F)(F)F)c2)C2=C(N=NC2)NC2=C1C(=O)CC2 (centres undefined) [US20250313563, Compound 949639]	100 to 1000 nM	100 to 1000 nM
CC1CCC12C1=C(N=NC1)NC1=C2C(=O)CC(C)(C)C1 (centres undefined) [US20250313563, Compound 949640]	1000 to 5000 nM	100 to 1000 nM
CC[C@@]1(c2cccc(C(F)(F)F)c2)C2=CN=NC2NC2=C1C(=O)N(c1cn(C)nc1C)CC2 (some centres undefined) [US20250313563, Compound 949642]	1000 to 5000 nM	100 to 1000 nM
CC[C@]1(c2cccc(-c3ccncc3F)c2)C2=C(CC(C)(C)NC2=O)NC2N=NC(F)=C21 (some centres undefined) [US20250313563, Compound 949643]	> 5000 nM	> 5000 nM
CC[C@]1(c2cccc(-c3cc(C)ncc3F)c2)C2=C(CC(C)(C)NC2=O)NC2N=NC(C(F)(F)F)=C21 (some centres undefined) [US20250313563, Compound 949644]	1000 to 5000 nM	100 to 1000 nM
CC[C@@]1(c2cccc(C(C)C)c2)C2=C(CC(C)(C)NC2=O)NC2N=NC(C)=C21 (some centres undefined) [US20250313563, Compound 949646]	> 5000 nM	> 5000 nM
CC[C@]1(c2cccc(N(C)c3ncccn3)c2)C2=C(CC(C)(C)NC2=O)NC2N=NC(F)=C21 (some centres undefined) [US20250313563, Compound 949647]	> 5000 nM	100 to 1000 nM
CC[C@@]1(c2cccc(N(C)c3ncccn3)c2)C2=C(CC(C)(C)NC2=O)NC2N=NC(F)=C21 (some centres undefined) [US20250313563, Compound 949648]	< 100 nM and 1000 to 5000 nM	< 100 nM
CC[C@]1(c2cccc(C(C)C)c2)C2=C(CC(C)(C)NC2=O)NC2N=NC(C)=C21 (some centres undefined) [US20250313563, Compound 949649]	< 100 nM and 1000 to 5000 nM	< 100 nM and 100 to 1000 nM
CC[C@@]1(c2cccc(-c3cc(C)ncc3F)c2)C2=C(CC(C)(C)NC2=O)NC2N=NC(C(F)(F)F)=C21 (some centres undefined) [US20250313563, Compound 949650]	< 100 nM and 1000 to 5000 nM	< 100 nM and 100 to 1000 nM
CC[C@@]1(c2cccc(C(F)(F)F)c2)C2=C(NC3=NN=CC31)c1ccccc1C2=O (some centres undefined) [US20250313563, Compound 949742]	100 to 1000 nM	100 to 1000 nM
CC[C@]1(c2cccc(C(F)(F)F)c2)C2=C(NC3=NN=CC31)c1ccccc1C2=O (some centres undefined) [US20250313563, Compound 949743]	< 100 nM and 100 to 1000 nM	< 100 nM
CCC1(c2cccc(C(C)C)c2)C2=C(CC(C)(C)NC2=O)NC2N=NC(C(F)(F)F)=C21 (centres undefined) [US20250313563, Compound 949747]	< 100 nM	< 100 nM
CCC1(c2cccc(OC)c2)C2=C(CC(C)(C)NC2=O)NC2N=NC(C(F)(F)F)=C21 (centres undefined) [US20250313563, Compound 949748]	100 to 1000 nM	< 100 nM
CC[C@@]1(c2cccc(C(C)C)c2)C2=CN=NC2NC2=C1C(=O)NC(C)(C)C2 (some centres undefined) [US20250313563, Compound 949752]	> 5000 nM	> 5000 nM
CC[C@@]1(c2ccccc2)C2=CN=NC2NC2=C1C(=O)C[C@]1(CCN(C)C1=O)C2 (some centres undefined) [US20250313563, Compound 949753]	> 5000 nM	1000 to 5000 nM
CC[C@]1(c2cccc(-c3ccncc3F)c2)C2=C(CC(C)(C)NC2=O)NC2N=NC(Cl)=C21 (some centres undefined) [US20250313563, Compound 949756]	> 5000 nM	> 5000 nM
CC[C@@]1(c2cccc(-c3ccncc3F)c2)C2=C(CC(C)(C)NC2=O)NC2N=NC(Cl)=C21 (some centres undefined) [US20250313563, Compound 949757]	< 100 nM and 1000 to 5000 nM	< 100 nM and 100 to 1000 nM
CC[C@]1(c2ccccc2)C2=CN=NC2NC2=C1C(=O)C[C@]1(CCN(C)C1=O)C2 (some centres undefined) [US20250313563, Compound 949760]	> 5000 nM	100 to 1000 nM
CC[C@]1(c2cccc(C(C)C)c2)C2=CN=NC2NC2=C1C(=O)NC(C)(C)C2 (some centres undefined) [US20250313563, Compound 949761]	100 to 1000 nM	100 to 1000 nM
CCC1(c2cccc(Br)c2)C2=C(N=NC2)NC2=C1C(=O)C(C)(C)C2 (centres undefined) [US20250313563, Compound 949805]	1000 to 5000 nM	100 to 1000 nM
